Laboratory results published in paper PMC6151508, “Development of Novel Nrf2/ARE Inducers Bearing Pyrazino[2,1-a]isoquinolin Scaffold with Potent In Vitro Efficacy and Enhanced Physicochemical Properties” (Molecules : A Journal of Synthetic Chemistry and Natural …, 2017).
Converted amounts (≈) assume the structure as drawn.

Key:
[1] = test system: antioxidant response element (ARE); set-up: method as in PMID 24053646; conditions: 10 μM, luciferase reporter assay; cited from earlier work
[2] = test system: heme oxygenase-1 (HO-1); set-up: method as in PMID 24053646; conditions: HCT116; cited from earlier work
[3] = test system: colorectal adenomas; set-up: method as in PMID 24053646; conditions: AOM-DSS mouse model; cited from earlier work
[4] = test system: Nrf2; set-up: method as in PMID 24053646; conditions: HCT116; cited from earlier work
[5] = test system: NQO1; set-up: method as in PMID 24053646; conditions: HCT116; cited from earlier work
[6] = Water solubility by pH-metric method (pSOL model 3); type: physicochemical; conditions: for solubility: water, pH 7.4, aqueous buffer, thermodynamic from solid
Description: (§1) This is a new potentiometric acid−base titration method.

[7] = pKa by potentiometric titration (Gemini Profiler, pION); type: physicochemical
Description: (§2) Ketoprofen and propranolol were chosen as a control.
as §1

[8] = test system: antioxidant response element (ARE); assay: ARE luciferase reporter assay in HepG2-ARE-C8 cells; type: cell-based; conditions: HepG2-ARE-C8, 12 h of treatment, mean ± SD n = 3; for fold induction at 0.1 µM / fold induction at 1 µM / fold induction at 5 µM / fold induction at 10 µM / fold induction at 50 µM / fold induction at 100 µM: read-out: ARE Inductivity in Luciferase Reporter Assay (induction fold)
Protocol: (§3) All the derivatives were evaluated for their ability to induce ARE in HepG2-ARE-C8 cell (HepG2 cells stably transfected with a luciferase reporter) by ARE luciferase reporter assay, and they were compared to the lead compound 2. At the same time, cytotoxicity studies were performed by the MTT assay against the HCT116 cells. The results of cytotoxic activity in vitro were expressed as the IC50 [18]. Because those compounds were designed for chemoprevention, they should not be cytotoxic.
HepG2-ARE-C8 cells (4 × 10^4 cells/well) were incubated overnight in 96-well plates, and then treated with different concentrations of test compounds. tBHQ was used as a positive control, DMSO was used as a negative control, and the luciferase cell culture lysis reagent was used as a blank. The medium was removed after 12 h treatment. Then, the cells were harvested in the luciferase cell culture lysis reagent together with 100 μL of cold PBS. Then, centrifuging the solution and 20 μL of the supernatant was used for determining the luciferase activity. The luciferase activity was measured by a Luminoskan Ascent (Thermo Scientific, Waltham, MA, USA). The data were obtained in triplicate and expressed as fold induction over the control. Induction fold = (RLUtest − RLUblank)/(RLUDMSOcontrol − RLUblank). RLU = relative light unit l.

[9] = log D pH 7.4 by potentiometric titration (Gemini Profiler, pION); type: physicochemical
Description: as §2, §1

[10] = MTT cell viability (cytotoxicity) assay; type: cell-based; conditions: human, HCT116 cells
Protocol: as §3
Cell viabilities were determined by using 3-[4,5-dimethylthiazol-2-yl]-2,5-diphenyltetrazolium bromide (MTT) assay. MTT was dissolved in (phosphate buffered solution) PBS to a concentration of 5 mg/mL. HCT116 cells (8 × 10^3 cells/well) were plated in 96-well plates and incubated overnight. Different concentrations of test compounds were added to each cell for 24 h at 37 °C, and the 20 μL MTT solution was added and incubated for an additional 4 h. Then, 100 μL of DMSO was added to dissolve formazan precipitate after the solution was removed. The OD value was determined at 570 nm by Elx800 absorbance microplate reader (BioTek, Winooski, VT, USA). IC50 value (concentration at which cell survival equals 50% of control) = […].

[11] = Parallel artificial membrane permeability assay (PAMPA by pION); conditions: pH 7.4
Protocol: (§6) Then we evaluated the physicochemical properties of a selected series of our compounds. […] All of them were evaluated with pKa, partition coefficient (log D, pH 7.4), membrane permeability (Pe, pH 7.4) and water solubility. […] Permeability (Pe) was determined by a standard parallel artificial membrane permeability assay (PAMPA by pION).
(§7) Permeability (Pe) was determined by a standard parallel artificial membrane permeability assay (PAMPA by pION).

[12] = test system: HCT116 cells; set-up: method as in PMID 24053646; conditions: previously reported value; cited from earlier work
[13] = test system: Nrf2; assay: Western blot of Nrf2 protein level in HCT116; type: cell-based, human; conditions: HCT116, 10 μM
Description: (§4) Compound 3g was selected to evaluate its capacity to activate the expression of Nrf2-regulated NQO1 by measuring the protein levels in HCT116 via Western Blot. […] Those data further confirmed that 3g bearing pyrido[1,2-a]pyrazin scaffold could elevate both Nrf2 and downstream proteins of Nrf2 at the cellular level.
(§5) Anti-NQO1 (sc-271116), anti-Nrf2 (BS1258) and Anti-β-actin (AP0060) antibodies were purchased from Santa Cruz Biotechnology (Santa Cruz, CA, USA) and Bioworlde (Bioworlde, Visalia, CA, USA), respectively. The isolation of cell fractions and Western blotting were performed as detailed previously. Briefly, the extracts were separated by SDS-PAGE and then electrotransferred to PVDF membranes (Perkin Elmer, Northwalk, CT, USA). Membranes were blocked with 1% BSA for 1 h followed by incubation with a primary antibody at 4 °C overnight. Then they were washed and treated with a DyLight 800 labeled secondary antibody at 37 °C for 2 h. The membranes were screened through the odyssey infrared imaging System (LI-COR, Lincoln, NE, USA).

[14] = test system: NQO1; assay: Western blot of NQO1 protein level in HCT116; type: cell-based, human; conditions: tBHQ at 100 μM
Description: as §4, §5

[15] = physchem; conditions: PAMPA, pH 7.4
Protocol: as §6, §7

| solubility [6] [mg/mL] | pKa [7] | melting point [°C] | logD [9] | Papp [11] [nm/s] | SMILES | fold induction at 0.1 µM [8] | fold induction at 1 µM [8] | fold induction at 5 µM [8] | fold induction at 10 µM ([8]; 10 μM) | fold induction at 50 µM [8] | fold induction at 100 µM ([8]; 100 μM) | IC50 at 24 h [10] [µM] | further results |
| --- | --- | --- | --- | --- | --- | --- | --- | --- | --- | --- | --- | --- | --- |
|  |  |  |  |  | O=C(/C=C1\NCC2c3ccccc3CCN2C1=O)c1ccccc1 (stereo not shown) [Compound 1] |  |  |  |  |  |  |  | induction of ARE (previously reported) [1]: 26.87 fold; expression of HO-1 [2]: induce; development of colorectal adenomas [3]: significantly inhibit; nuclear translocation of Nrf2 [4]: induce the nuclear translocation of Nrf2; expression of NQO1 [5]: induce |
| 0.046 (≈ 103 µM) | 2.9 | 228 to 230 | 0.61 | 530 ± 72.9 | O=C(C=C1NCC2c3ccccc3CCN2C1=O)c1cccc(NC(=O)N2CCOCC2)c1 (stereo not shown) [Compound 1e, N-(3-(2-(4-oxo-1,6,7,11b-tetrahydro-2H-pyrazino[2,1-a]isoquinolin-3(4H)-ylidene)acetyl)phenyl)morpholine-4-carboxamide] | 1.57 ± 0.05 | 1.97 ± 0.2 | 4.53 ± 0.28 | 5.48 ± 0.13 | 7.8 ± 3.94 | 35 ± 3.15 | 183 |  |
| 0.022 (≈ 65.4 µM) | 2.78 |  | 2.38 | 117 ± 22 | O=C(/C=C1\NCC2c3ccccc3CCN2C1=O)c1cccc(F)c1 (stereo not shown) [Compound 2] | 1.45 ± 0.39 | 6.2 ± 4.06 | 16.2 ± 0.3 | 31.2 | 7.51 ± 1.32 | 12.2 ± 3.32 | 165 | water solubility ([6]; pH 7.4): 0.022 mg/mL (≈ 65.4 µM); ARE Inductivity in Luciferase Reporter Assay (induction fold) ([8]; 10 μM): 31.17 ± 4.14 fold; induction of ARE (previously reported) [1]: 33.00 fold; IC50 [12]: > 100 µM |
| 0.17 (≈ 574 µM) | 3.02 | 172 to 174 | 1.22 | 440 ± 54.2 | O=C(C=C1NCC2c3ccccc3CCN2C1=O)C1CCC1 (stereo not shown) [Compound 2c, 3-(2-cyclobutyl-2-oxoethylidene)-1,2,3,6,7,11b-hexahydro-4H-pyrazino[2,1-a]isoquinolin-4-one] | 2.96 ± 0.48 | 3.04 ± 0.08 | 5.73 ± 1.44 | 13.3 ± 0.44 | 28 ± 1.39 | 29 ± 2.45 | 190 |  |
| 0.53 (≈ 1960 µM) | 3.42 | 164 to 166 | 0.98 | 664 ± 50.8 | O=C(C=C1NCC2CCCCN2C1=O)c1ccccc1 (stereo not shown) [Compound 3a, 3-(2-oxo-2-phenylethylidene)octahydro-4H-pyrido[1,2-a]pyrazin-4-one] | 1.2 ± 0.49 | 4.09 ± 0.79 | 15.8 ± 2.08 | 16.4 ± 0.55 | 29.9 ± 8.49 | 40.6 ± 1.78 | > 300 |  |
| 0.29 (≈ 1010 µM) | 3.1 | 156 to 158 | 1.23 | 546 ± 60 | O=C(C=C1NCC2CCCCN2C1=O)c1cccc(F)c1 (stereo not shown) [Compound 3b, 3-(2-(3-fluorophenyl)-2-oxoethylidene)octahydro-4H-pyrido[1,2-a]pyrazin-4-one] | 0.7 ± 0.35 | 5.98 ± 2.31 | 24.8 ± 2.67 | 33 | 40 ± 0.69 | 4.41 ± 2.89 | 168 | ARE Inductivity in Luciferase Reporter Assay (induction fold) ([8]; 10 μM): 32.97 ± 3.68 fold |
| 3.31 (≈ 12700 µM) | 2.08 | 152 to 154 | -0.34 | 327 ± 19.2 | O=C(C=C1NCC2CCCCN2C1=O)c1ccco1 (stereo not shown) [Compound 3g, 3-(2-(furan-2-yl)-2-oxoethylidene)octahydro-4H-pyrido[1,2-a]pyrazin-4-one] | 0.24 ± 0.15 | 1.5 ± 0.01 | 6.41 ± 3.14 | 27 | 41.6 ± 2.6 | 79.7 | > 300 | ARE Inductivity in Luciferase Reporter Assay (induction fold) ([8]; 10 μM): 27.01 ± 2.46 fold; ARE Inductivity in Luciferase Reporter Assay (induction fold) ([8]; 100 μM): 79.74 ± 1.92 fold; Nrf2 protein level (Western blot) [13]: elevated the protein level of Nrf2; NQO1 protein level (Western blot) [14]: induced by 3g in a concentration-dependent manner |
|  |  | 182 to 184 |  |  | O=C(C=C1NCC2CCCCN2C1=O)c1cccs1 (stereo not shown) [Compound 3h, 3-(2-oxo-2-(thiophen-2-yl)ethylidene)octahydro-4H-pyrido[1,2-a]pyrazin-4-one] | 2.06 ± 0.22 | 2.12 ± 0.31 | 8.3 ± 2.55 | 10.5 ± 3.82 | 28.9 ± 0.46 | 1.63 ± 0.25 | > 300 |  |
|  |  | 151 to 153 |  |  | O=C(C=C1NCC2CCCCN2C1=O)c1nccs1 (stereo not shown) [Compound 3i, 3-(2-oxo-2-(thiazol-2-yl)ethylidene)octahydro-4H-pyrido[1,2-a]pyrazin-4-one] | 1.52 ± 0.87 | 4.02 ± 3.05 | 6.41 ± 1.48 | 9.28 ± 0.55 | 13.5 ± 0.8 | 16.7 ± 1.39 | > 300 |  |
|  |  | 151 to 153 |  |  | O=C(C=C1NCC2CCCCN2C1=O)c1cccc2ccccc12 (stereo not shown) [Compound 3j, 3-(2-(naphthalen-1-yl)-2-oxoethylidene)octahydro-4H-pyrido[1,2-a]pyrazin-4-one] | 1.7 ± 0.19 | 2.34 ± 0.53 | 2.54 ± 0.99 | 3.52 ± 0.57 | 3.85 ± 0.34 | 1.96 ± 0.71 | 264 |  |
|  |  |  |  |  | CC(C)NCC(O)COc1cccc2ccccc12 (stereo not shown) [Propranolol] |  |  |  |  |  |  |  | Papp [15]: 647 ± 85.8 nm/s |
|  |  |  |  |  | CC(C)(C)c1cc(O)ccc1O [tBHQ, tert-butylhydroquinone, reference compound] | 1 ± 0.01 | 1.8 ± 0.66 | 1.67 ± 0.56 | 1.98 ± 0.29 | 4.45 ± 1.15 | 10.8 |  | ARE Inductivity in Luciferase Reporter Assay (induction fold) ([8]; 100 μM): 10.79 ± 3.13 fold; NQO1 protein level (Western blot) [14]: induced expression of NQO1 |
